Test results: patent US9707202B2, “Certain chemical entities, compositions, and methods” (NEUPHARMA, INC., priority 2011, dated 2017)
In brackets after ≈: the same amount, converted by molar mass.

What was measured:
[1] = tested on: A549 cells; experiment: Inhibition of cell growth in tumor cells (MTT assay); type: cell-based; settings: Homo sapiens, 72 h compound exposure
Protocol: Inhibition of cell growth by compounds was measured using MTT assay (Mosmann, T., Journal of Immunological Methods, 1983, 65, 55-63). Tumor cell lines were purchased from ATCC (American Type Culture Collection, Manassas, Va.). All cell lines were maintained in RPMI 1640 (Hyclone) supplemented with 10% fetal bovine serum (FBS, Hyclone), glutamine (2 mM, Hyclone), and antibiotics (penicillin 100 U/mL and streptomycin 50 µg/mL) at 37° C. in a humidified atmosphere of 5% CO2 in air. Taxol (positive control, Sigma) and compounds were dissolved in DMSO (Sigma), and the final concentration of DMSO in the medium was 1%. Tumor cells were plated in 96-well plates at densities from 4000 cells/well of a 96-well plate and allowed to adhere/grow for 24 h. They were then treated with various concentrations of drug for 72 h. 3-(4,5-Dimethylthiazol-2-yl)-2,5-diphenyltetrazolium bromide (MTT, Sigma) was used to determine the number of viable cells at the time of compound addition and the number of cells remaining after 72 h compound exposure. The number of cells remaining after 72 h was compared to the number of viable cells at the time of compound addition by measuring the absorbance at 570 nm, allowing for the calculation of growth inhibition.
All concentrations of compounds were tested in triplicate and controls were averaged over 4 wells. IC50 was calculated by plotting the concentration of compound vs the percentage of inhibition in treated wells using GraphPad Prism 5.

[2] = Equilibrium solubility in aqueous buffer; type: physicochemical; settings: thermodynamic from solid, NaOAc/AcOH buffer (100 mM, pH 5.0), shaken at rt for 24 h, HPLC UV
Protocol: The equilibrium solubility of compounds was measured in aqueous buffer. Excess amount of solid compound was added into buffer solution and the sample was briefly sonicated and then shaken at rt for 24 h. The sample was filtered and the concentration was analyzed by HPLC UV. A standard solution at 0.2 mg/mL was prepared in methanol or acetonitrile for each compound and used as an external standard for quantification.

SMILES	IC50 [1] [µM]	solubility at 24 h [2] [µg/mL]	solubility at 24 h ([2]; aqueous buffer (NaOAc/AcOH)) [µg/mL]
COc1ccc(/C=C/C(=O)CC(=O)/C=C/c2ccc(OC(=O)N3CCN(C)CC3)c(OC)c2)cc1OC [4-((1E,6E)-7-(3,4-dimethoxyphenyl)-3,5-dioxohepta-1,6-dien-1-yl)-2-methoxyphenyl 4-methylpiperazine-1-carboxylate]	4.3	320 (≈ 629 µM)	–
COc1ccc(/C=C/C(=O)CC(=O)/C=C/c2ccc(OC(=O)N(C)C)c(OC)c2)cc1OC [4-((1E,6E)-7-(3,4-dimethoxyphenyl)-3,5-dioxohepta-1,6-dien-1-yl)-2-methoxyphenyl dimethylcarbamate]	10.6	–	–
COc1ccc(/C=C/C(=O)CC(=O)/C=C/c2ccc(OC(=O)N3CCOCC3)c(OC)c2)cc1OC [4-((1E,6E)-7-(3,4-dimethoxyphenyl)-3,5-dioxohepta-1,6-dien-1-yl)-2-methoxyphenyl morpholine-4-carboxylate]	4.6	–	–
COc1cc(/C=C/C(=O)CC(=O)/C=C/c2ccc(OC(=O)N(C)C)c(OC)c2)ccc1OCCO [4-((1E,6E)-7-(4-(2-hydroxyethoxy)-3-methoxyphenyl)-3,5-dioxohepta-1,6-dien-1-yl)-2-methoxyphenyl dimethylcarbamate]	9.1	–	–
COc1cc(/C=C/C(=O)CC(=O)/C=C/c2ccc(OC(=O)N3CCCCC3)c(OC)c2)ccc1OCCO [4-((1E,6E)-7-(4-(2-hydroxyethoxy)-3-methoxyphenyl)-3,5-dioxohepta-1,6-dien-1-yl)-2-methoxyphenyl piperidine-1-carboxylate]	10.9	–	–
COc1cc(/C=C/C(=O)CC(=O)/C=C/c2ccc(OC(=O)N3CCN(C)CC3)c(OC)c2)ccc1O [4-((1E,6E)-7-(4-hydroxy-3-methoxyphenyl)-3,5-dioxohepta-1,6-dien-1-yl)-2-methoxyphenyl 4-methylpiperazine-1-carboxylate]	3.8	18 (≈ 36.4 µM)	–
COc1cc(/C=C/C(=O)CC(=O)/C=C/c2ccc(OC(=O)N(C)C)c(OC)c2)ccc1O [4-((1E,6E)-7-(4-hydroxy-3-methoxyphenyl)-3,5-dioxohepta-1,6-dien-1-yl)-2-methoxyphenyl dimethylcarbamate]	2.3	–	–
COc1cc(/C=C/C(=O)CC(=O)/C=C/c2ccc(OC(=O)N3CCOCC3)c(OC)c2)ccc1O [4-((1E,6E)-7-(4-hydroxy-3-methoxyphenyl)-3,5-dioxohepta-1,6-dien-1-yl)-2-methoxyphenyl morpholine-4-carboxylate]	7.2	–	–
COc1cc(/C=C/C(=O)CC(=O)/C=C/c2ccc(OC(=O)N3CCNCC3)c(OC)c2)ccc1O [4-((1E,6E)-7-(4-hydroxy-3-methoxyphenyl)-3,5-dioxohepta-1,6-dien-1-yl)-2-methoxyphenyl piperazine-1-carboxylate]	9.2	1390 (≈ 2890 µM)	–
COc1cc(/C=C/C(=O)CC(=O)/C=C/c2ccc(OC(=O)N3CCCCC3)c(OC)c2)ccc1O [4-((1E,6E)-7-(4-hydroxy-3-methoxyphenyl)-3,5-dioxohepta-1,6-dien-1-yl)-2-methoxyphenyl piperidine-1-carboxylate]	8	–	–
COc1cc(/C=C/C(=O)CC(=O)/C=C/c2ccc(O)c(OC)c2)ccc1O [Curcumin, reference compound]	> 30	–	< 1
